Measured values from a melting point compilation (Tetko et al.; mined from patent text by program, amines drawn as free bases though some values may be those of a salt).

Compound | melting point
CC(=O)c1sc2sc(-c3ccncc3)c(C)c2c1C | 171 to 173 °C
CCOCc1nc2c(N)nc3ccccc3c2n1CCOCCNC(=O)Nc1ccccc1 | 183 to 186 °C
COc1cc(Cc2cnc(N)nc2N)cc(C#Cc2ccc3ccccc3c2)c1OC | 152 to 155 °C
Fc1ccc(C=Cc2nc(CNc3ccc(CCCCn4ccnn4)cc3)co2)c(C(F)(F)F)c1 | 109 to 111 °C
O=c1[nH]c2cc(N3CCCC3)c(F)cc2c(=O)n1OCc1ccccc1 | > 250 °C
CCOC(=O)Cc1ccc(-c2cn3ccsc3n2)cc1 | 117 to 119 °C
Cn1ncnc1COc1nc2c(cc1C1CCC1)nnn2-c1ccccc1F | 120 to 122 °C
Cc1nc(N2CCN(CCCC(F)(F)F)C2=O)sc1C(=O)NCc1cccnc1 | 167 to 169 °C
CCCCN(CCCC)c1ccc(C=C2C(=C(C#N)C#N)c3ccccc3C2=C(C#N)C#N)c(OC)c1 | 195 to 198 °C
O=C(Nc1cccc(Cc2ccccc2)c1)N1CCc2c(cnc3[nH]ncc23)C1 | 175 to 178 °C
O=C1c2cccc([N+](=O)[O-])c2C(=O)c2cccc(O)c21 | 299 to 302 °C
CCN(CC)C(=O)c1ccc2ccccc2c1-c1ccc(C)cc1 | 181 to 183 °C
CC1CCCC(=Cc2ccc(Cl)cc2)C1=O (stereo not given) | 59 °C
CCN1C(=O)CN=C(c2ccccc2F)c2cc(C(C)=NO)ccc21 | 236 to 238 °C
CCOC(=O)C1(NS(=O)(=O)c2ccc3c(Cl)cnc(Cl)c3c2)CCCC1 | 127 to 129 °C
NS(=O)(=O)c1cc(CCNC(=O)C=Cc2cccs2)ccc1OCC1CCCO1 (stereo not given) | 180 to 185 °C
O=C(O)CCCc1cc2nc(Cl)ccc2n1S(=O)(=O)c1ccc(F)cc1 | 180 °C
O=C(C=Cc1ccc(Cl)c(C(F)(F)F)c1)NN1CC(=O)NC1=O | 270 to 273 °C
O=P(O)(O)C(O)(Cc1cccc(Cl)c1)P(=O)(O)O | 198 to 200 °C
CC1=CC(OC(=O)c2ccc(N)c(N)c2)C(O)C(C)(C)CC1=O (stereo not given) | 136 to 137 °C
CN1CC(CNN)CC2c3cccc4c3c(cn4C)CC21 (stereo not given) | 102 to 103 °C

Compound | melting point
CCOC(=O)CCC(CC(=O)c1ccc(N)cc1)C(=O)OCC (racemic) | 58 to 61 °C
Cc1cccc(-c2sc(N)nc2-c2ccc3c(c2)OCO3)n1 | 170 to 172 °C
CC1CCC(=NNc2ccccc2)c2ncc(C(=O)O)c(=O)n21 (single isomer, unassigned; (-)) | 255 to 256 °C
CCCCc1oc2ccccc2c1C(=O)NCc1ccc2c(-c3ccccc3)c(O)ccc2c1 | 72 °C
CCn1c2ccccc2c2cc(C#N)ccc21 | 183 to 185 °C
CNc1nc2ccc(CCc3nc4cc(OC)ccn4c3C)cc2o1 | 203 to 205 °C
Nc1cccc2cc(-c3nccs3)[nH]c12 | 173 to 174 °C
O=C(c1ccc(C(F)(F)F)cc1)c1ccc(O)cn1 | > 260 °C
CCOC(=O)c1cc(/C=C/c2ccc(O)cc2)ccc1O | 269 to 271 °C
N#Cc1cc(-c2ccccc2)[nH]c1Sc1ccccc1N | 159 to 160 °C
CCC(=O)Oc1ccc(/C=C/C=C/C(=O)NCCN2CCC(c3c[nH]c4ccccc34)CC2)cc1OC | 157 to 158 °C
CC(=O)OC1CSC(O)C(OC(C)=O)C1OC(C)=O (stereo not given) | 115 °C
NNc1cc2c(nn1)CCCCCC2 | 145 to 148 °C
CCN(CC)CCCN1C(=O)NC(Cc2c[nH]c3ccc(OC)cc23)C1=O (stereo not given) | 136 °C
CCCCc1nc2c(c(C)c(C)n3nnnc23)n1CC(C)(C)NC(=O)NC1CCCCC1 | 194 to 197 °C
CCOC(=O)C(=CNc1ccnc(-c2ccccn2)n1)C(=O)OCC | 162 to 164 °C
Cc1cccc2c1nc(COc1ccc(Cl)cc1)n2CCC(C)C(=O)N1CCCC1 (racemic) | 140 to 142 °C
CSc1nccc(C(=NO)C(=O)c2cccc(Br)c2)n1 | 156 to 158 °C
CC(C)N(C[C@H](O)COc1ccc(OCc2ccccc2)cc1)S(C)(=O)=O | 96 to 97 °C
C=CCOc1cc(C(=O)OCC)nc2c(CCC)c3oc(C(=O)OCC)cc(=O)c3cc12 | 151 to 153 °C
C=Cc1cc2c(Cl)cc(F)c(-n3c(=O)cc(C(F)(F)F)n(C)c3=O)c2o1 | 108 to 109 °C

Continued, values first:

melting point | Compound
195 °C | CCS(=O)(=O)NNC(=O)NNS(=O)(=O)CC
178 to 179 °C | COc1cc2ncnc(N3CCN(C(=O)NCc4ccsc4)CC3)c2cc1OC
72 to 75 °C | CC(CNC(c1ccccc1)c1ccccc1)NC(c1ccccc1)c1ccccc1 (stereo not given)
186 to 190 °C | Cn1cc(-c2ccccc2)c(=O)c(-c2cccc(-c3ccccc3)c2)c1
> 250 °C | CCc1nc2c(N)nc3cc(-c4cncc(CO)c4)ccc3c2n1CC(C)(C)O
171 to 172 °C | COc1ccc2cc(S(N)(=O)=O)[nH]c2c1
273 to 276 °C | O=C(O)c1cn(Cc2nccs2)c2cc(N3CCN(c4ccncc4)CC3)ccc2c1=O
187 to 188 °C | CC(C)Oc1ccc(-n2c(C(=O)NC(C)(C)C(=O)O)c(Cl)c3cc(Oc4ccc(C(F)(F)F)cc4)ccc32)cc1
136 °C | Cc1cc(SC(=O)N(C)C)c(C(C)(C)C)cc1CO
241 to 243 °C | O=C(CBr)Nc1ccc(C(=O)O)cc1
106 °C | Cc1c(NC(=O)c2ccc(OCC3CCOC3)cc2)ccc2cc(CNC(C)C)cnc12 (stereo not given)
69 to 70 °C | COc1ccc2oc(Cc3ccccc3)c(CC#N)c2c1
70 to 71 °C | C=C1N(CCC)C(=O)OC12CCN(Cc1ccccc1)CC2
185 to 186 °C | Cc1ccc(-c2ccc(S(C)(=O)=O)cc2)n1-c1ccc(-c2cccs2)cc1
154 to 157 °C | CC(C)CCn1cc([N+](=O)[O-])cc1C(=O)O
172 to 174 °C | CC(C)N1C(=O)NC(c2cccnc2)c2cc3c(cc21)OCO3 (stereo not given)
96 to 98 °C | C=CCSc1ccc(-c2ccccc2)nn1
110 °C | CCCOc1ccc(C(CC(N)=O)N2C(=O)c3ccccc3C2=O)cc1 (stereo not given)
184 °C | CC(Cc1nc(-c2ccccc2)cc2ccccc12)C(=O)O (stereo not given)
122 °C | C#CCOc1cc(-n2c(Cl)c(C#N)n(CCC)c2=O)c(F)cc1Cl
67 to 69.5 °C | N#CC=C(N)c1ccsc1
90 to 91 °C | CCOP(C)(=O)c1cc(Cl)ccc1Cl (stereo not given)
127 to 128 °C | CCC(CC)c1ccc(Cl)c2nc3n(c12)CCCCN3c1ccc(C(=O)NC)cc1C
134 to 148 °C | CN(C)CCCCCCNCc1ccc(-c2cc3ncnc(Nc4ccc5[nH]ccc5c4)c3s2)cc1
177 to 178 °C | NS(=O)(=O)c1cccc(C(=O)Nc2ccc(-n3nc(C(F)(F)F)cc3C(F)(F)F)cc2)c1
200 to 201 °C | N#Cc1ccc(N(Cc2ccc(OCc3ccccc3)cc2)n2cnnc2)cc1-c1cc2ccccc2o1
172 °C | Nc1c(SC(F)(F)F)nc(Cl)n1-c1c(Cl)cc(C(F)(F)F)cc1Cl
150 to 152 °C | CC(C)(C)OC(=O)NC1CCCCCC=CC2CC2(C(=O)NS(=O)(=O)C2CC2)NC(=O)C2CC(OC(=O)c3cnccn3)CN2C1=O (stereo not given)
